According to ChEMBL document CHEMBL1201862, “PubChem BioAssay data set” (2004):
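How tested: cells in 96-well plates exposed to compound for 48 hours at five concentrations. GI50 = concentration required for 50% inhibition of growth.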 Activity calls are given as the source filed them. No stated cut-off is given here; in the data, active = GI50 up to about 1.1 µM and inactive = higher.

How the values were obtained:
Test in all cases: inhibition of tumour cell growth, NCI panel, 48 h
SW-620 = test system: SW-620
HOP-92 = test system: HOP-92
DMS-273 = test system: DMS-273
IGROV-1 = test system: IGROV-1
K562 = test system: K562
M19-MEL = test system: M19-MEL
SF-539 = test system: SF-539
SN12C = test system: SN12C
HT-29 = test system: HT-29
786-0 = test system: 786-0
SK-MEL-2 = test system: SK-MEL-2
OVCAR-4 = test system: OVCAR-4
COLO 205 = test system: COLO 205
SK-MEL-28 = test system: SK-MEL-28
SF-268 = test system: SF-268

Measured: GI50

COC(=O)c1c(-c2cc(OC)c(OC)c(OC)c2)oc2ccccc2c1=O
inactive: SW-620 > 100 µM | HOP-92 96.6 µM | DMS-273 84.9 µM | IGROV-1 > 100 µM | K562 42.8 µM | M19-MEL > 100 µM | SF-539 > 100 µM | SN12C > 100 µM | HT-29 > 100 µM | 786-0 > 100 µM | SK-MEL-2 > 100 µM | OVCAR-4 68.4 µM | COLO 205 97.7 µM

CN1C(=O)C(=O)N2c3ccc(Cl)cc3C3(c4ccccc4)N=CC12O3 (centres undefined)
inactive: SK-MEL-28 3.44 µM | SW-620 3.79 µM | HOP-92 2.39 µM | DMS-273 4.35 µM | IGROV-1 7.28 µM | K562 3.45 µM | M19-MEL 3.57 µM | SF-539 3.27 µM | SN12C 3.53 µM | SF-268 7.53 µM | HT-29 4.55 µM | 786-0 6.95 µM | SK-MEL-2 6.01 µM | OVCAR-4 2.11 µM | COLO 205 4.02 µM

Cc1ccc(NC(=O)CCC(=O)C(C#N)c2ccc(Cl)cc2)cc1C (centres undefined)
inactive: SK-MEL-28 > 100 µM | SW-620 > 100 µM | HOP-92 > 100 µM | DMS-273 > 100 µM | IGROV-1 > 100 µM | K562 > 100 µM | M19-MEL > 100 µM | SF-539 > 100 µM | SN12C > 100 µM | SF-268 > 100 µM | HT-29 > 100 µM | 786-0 > 100 µM | SK-MEL-2 > 100 µM | OVCAR-4 > 100 µM

O=c1[nH]cc(C(F)(C(F)(F)F)C(F)(F)F)c(=O)[nH]1
inactive: SK-MEL-28 > 100 µM | SW-620 > 100 µM | HOP-92 > 100 µM | DMS-273 > 100 µM | IGROV-1 > 100 µM | K562 > 100 µM | M19-MEL > 100 µM | SF-539 > 100 µM | SN12C > 100 µM | SF-268 > 100 µM | HT-29 > 100 µM | 786-0 > 100 µM | SK-MEL-2 > 100 µM | OVCAR-4 > 100 µM | COLO 205 > 100 µM

COc1ccc(Cc2nc3ccccc3s2)cc1OC
inactive: SK-MEL-28 18 µM | SW-620 18.5 µM | HOP-92 17.7 µM | DMS-273 15.6 µM | IGROV-1 18.9 µM | K562 20.3 µM | M19-MEL 15.6 µM | SF-539 17.3 µM | SN12C 17.1 µM | SF-268 15.8 µM | HT-29 18.7 µM | 786-0 17.9 µM | SK-MEL-2 20.3 µM | OVCAR-4 16.4 µM | COLO 205 14.6 µM

c1ccc(Nc2nnc(CSc3nc(-c4ccccc4)c(-c4ccccc4)[nH]3)s2)cc1
inactive: SK-MEL-28 24.2 µM | HOP-92 11.1 µM | DMS-273 16.8 µM | IGROV-1 21.3 µM | M19-MEL 15.3 µM | SF-539 26.4 µM | SN12C 17.1 µM | SF-268 24.4 µM | HT-29 15.2 µM | 786-0 18.2 µM | SK-MEL-2 19 µM | OVCAR-4 27 µM | COLO 205 12.3 µM

CCCCCCCCCCCCCCCC(=O)OCCOCCOCCOCCOCCOC(=O)CCCCCCCCCCCCCCC
inactive: SK-MEL-28 > 100 µM | SW-620 > 100 µM | HOP-92 > 100 µM | DMS-273 > 100 µM | IGROV-1 > 100 µM | K562 > 100 µM | M19-MEL > 100 µM | SN12C > 100 µM | SF-268 > 100 µM | HT-29 > 100 µM | 786-0 > 100 µM | SK-MEL-2 > 100 µM | OVCAR-4 > 100 µM | COLO 205 > 100 µM

C[C@@H]1C(=O)CC2C(C)(C)CCC[C@]2(C)[C@@]12CC[C@]1(C=COC1)O2 (some centres undefined)
inactive: SW-620 50.8 µM | HOP-92 13.8 µM | DMS-273 34.2 µM | IGROV-1 36.9 µM | K562 24.3 µM | M19-MEL 38.1 µM | SF-539 39.5 µM | SN12C 18.7 µM | SF-268 64.7 µM | HT-29 28.2 µM | 786-0 33.3 µM | SK-MEL-2 22.7 µM | OVCAR-4 43.8 µM | COLO 205 32.3 µM

CC(C)c1cc(OCC(O)CO)cc(C(C)C)c1 (centres undefined)
inactive: SK-MEL-28 > 100 µM | SW-620 > 100 µM | HOP-92 > 100 µM | DMS-273 > 100 µM | IGROV-1 > 100 µM | K562 > 100 µM | M19-MEL > 100 µM | SF-539 > 100 µM | SN12C > 100 µM | SF-268 > 100 µM | HT-29 > 100 µM | 786-0 > 100 µM | SK-MEL-2 > 100 µM | OVCAR-4 > 100 µM | COLO 205 > 100 µM

CC(C(=O)n1nnc2ccccc21)N(c1ccccc1)c1ccccc1 (centres undefined)
inactive: SK-MEL-28 > 100 µM | SW-620 > 100 µM | DMS-273 91.6 µM | IGROV-1 > 100 µM | K562 > 100 µM | M19-MEL > 100 µM | SF-539 > 100 µM | SN12C > 100 µM | SF-268 > 100 µM | HT-29 > 100 µM | 786-0 > 100 µM | SK-MEL-2 > 100 µM | COLO 205 > 100 µM

CCOC(=N)CC(=O)Nc1ccccc1CC
inactive: SK-MEL-28 > 100 µM | SW-620 > 100 µM | DMS-273 > 100 µM | IGROV-1 > 100 µM | K562 > 100 µM | M19-MEL > 100 µM | SF-539 > 100 µM | SN12C > 100 µM | SF-268 > 100 µM | HT-29 > 100 µM | 786-0 > 100 µM | SK-MEL-2 > 100 µM | OVCAR-4 > 100 µM | COLO 205 > 100 µM

CC1=C(C(=O)Nc2ccc([N+](=O)[O-])cc2)C(c2ccc3c(c2)OCO3)C(C(=O)Nc2ccc([N+](=O)[O-])cc2)=C(C)N1
inactive: SK-MEL-28 24.9 µM | SW-620 51.9 µM | HOP-92 4.08 µM | DMS-273 9.77 µM | IGROV-1 8.41 µM | K562 4.15 µM | M19-MEL 13.3 µM | SF-539 27.7 µM | SN12C 38.3 µM | SF-268 > 100 µM | HT-29 6.95 µM | 786-0 14.1 µM | SK-MEL-2 6.68 µM | OVCAR-4 10.6 µM | COLO 205 4.13 µM

O=c1[nH]c(-c2ccccc2)nc2cc(Cl)ccc12
inactive: SK-MEL-28 > 100 µM | SW-620 > 100 µM | DMS-273 > 100 µM | IGROV-1 > 100 µM | K562 > 100 µM | M19-MEL > 100 µM | SF-539 > 100 µM | HT-29 > 100 µM | 786-0 > 100 µM | SK-MEL-2 > 100 µM | OVCAR-4 > 100 µM

CC(C)NCC(O)COC(=O)c1cccs1 (centres undefined)
inactive: SK-MEL-28 > 100 µM | SW-620 > 100 µM | HOP-92 > 100 µM | DMS-273 > 100 µM | IGROV-1 > 100 µM | K562 > 100 µM | M19-MEL > 100 µM | SN12C > 100 µM | SF-268 > 100 µM | HT-29 > 100 µM | 786-0 > 100 µM | SK-MEL-2 > 100 µM | OVCAR-4 > 100 µM | COLO 205 > 100 µM

Cc1cc(=O)oc2cc(OCCCOc3ccc4c(C)cc(=O)oc4c3)ccc12
inactive: SK-MEL-28 > 100 µM | SW-620 > 100 µM | DMS-273 91.4 µM | IGROV-1 > 100 µM | K562 > 100 µM | M19-MEL > 100 µM | SF-539 > 100 µM | SN12C > 100 µM | SF-268 > 100 µM | HT-29 > 100 µM | 786-0 59.8 µM | SK-MEL-2 > 100 µM | OVCAR-4 > 100 µM | COLO 205 > 100 µM

CC1CC(C)C(C(O)CC2CC(=O)N(c3ccccc3)C(=O)C2)C(O)C1 (centres undefined)
inactive: SK-MEL-28 > 100 µM | SW-620 > 100 µM | HOP-92 > 100 µM | DMS-273 > 100 µM | IGROV-1 > 100 µM | K562 > 100 µM | M19-MEL > 100 µM | SF-539 > 100 µM | SN12C > 100 µM | SF-268 > 100 µM | HT-29 > 100 µM | 786-0 > 100 µM | OVCAR-4 > 100 µM | COLO 205 > 100 µM

COc1ccc(O)c(C#N)c1C#N
inactive: SW-620 > 100 µM | DMS-273 > 100 µM | IGROV-1 > 100 µM | K562 > 100 µM | M19-MEL > 100 µM | SF-539 > 100 µM | SN12C > 100 µM | SF-268 > 100 µM | HT-29 > 100 µM | 786-0 > 100 µM | SK-MEL-2 > 100 µM | OVCAR-4 > 100 µM | COLO 205 > 100 µM

CCOC(=O)Cc1nc2ccccc2s1
inactive: SK-MEL-28 15 µM | SW-620 19.2 µM | DMS-273 22.6 µM | IGROV-1 39 µM | K562 25.4 µM | M19-MEL 18.4 µM | SF-539 18.4 µM | SN12C 16.8 µM | SF-268 18.6 µM | HT-29 19.6 µM | 786-0 18.9 µM | SK-MEL-2 18.2 µM | OVCAR-4 > 10 µM | COLO 205 38.6 µM

O=C(CCn1[nH]c(=O)c(Cl)c(Cl)c1=O)NNC(=O)C[n+]1ccccc1
inactive: SK-MEL-28 > 100 µM | SW-620 > 100 µM | DMS-273 > 100 µM | IGROV-1 > 100 µM | K562 > 100 µM | M19-MEL > 100 µM | SF-539 > 100 µM | SN12C > 100 µM | SF-268 > 100 µM | HT-29 > 100 µM | 786-0 > 100 µM | SK-MEL-2 > 100 µM | OVCAR-4 > 100 µM | COLO 205 > 100 µM
